Tests used:
BACE1 = molecular target: T1, BACE1 (Homo sapiens, UniProt P56817); experiment: Cellular Aβ-lowering assay (Abeta 40 AlphaLISA, HEK293 APP cells); type: cell-based; settings: 18-20 hrs incubation, Aβ40 in culture supernatant, read-out: BACE1 cell act. Aβ40 IC50
T1 construct: endogenous in cells; host or cells: HEK293 APP cells (HEK293 expressing APP)
Method: Cellular Aβ-lowering Assay:
The Abeta 40 AlphaLISA Assay can be used. The HEK293 APP cells were seeded in 96 well Microtiter plates in cell culture medium (Iscove's, plus 10% (v/v) fetal bovine serum, penicillin/streptomycin) to about 80% confluency and the compounds were added at a 3× concentration in ⅓ volume of culture medium (final DMSO concentration was kept at 1% v/v). After 18-20 hrs incubation at 37° C. and 5% CO2 in a humidified incubator, the culture supernatants were harvested for the determination of Aβ40 concentrations using Perkin-Elmer Human Amyloid beta 1-40 (high specificity) Kit (Cat# AL275C).
In a Perkin-Elmer White Optiplate-384 (Cat# 6007290), 2 ul culture supernatants were combined with 2 μl of a 10× AlphaLISA Anti-hAβAcceptor beads+Biotinylated Antibody Anti-Aβ1-40 Mix (50 μg/mL/5 nM). After 1 hour room temperature incubation, 16 μl of a 1.25 × preparation of Streptavidin (SA) Donor beads (25 μg/mL) were added and incubated for 30 minutes in the Dark. Light Emission at 615 nm was then recorded using EnVision-Alpha Reader. Levels of Aβ 40 in the culture supernatants were calculated as percentage of maximum signal (cells treated with 1% DMSO without inhibitor). The IC50 values were calculated using the Excel XLfit software.

[1] = system: Aβ40 in brain of wild-type mice; experiment: Lowering of Aβ40 in brain of wild-type mice; type: in vivo, mouse; settings: female C57Bl/6J mice, 30 mg/kg per os, 4 h after dose, brain Aβ40 as percentage of the vehicle group
Method: Lowering of Aβ40 in Brain of Wild-Type Mice:
Animals and Housing Conditions. Animals were maintained in a 12/12 h light/dark cycle, with lights starting at 6 a.m., and experiments were conducted during the light phase. Animal housing and experimental procedures were in line with ethical and legal guidelines and were authorized by local veterinary authorities.
Experiment. Female C57B1/6J mice were treated with a dose of 30 mg/kg of the compounds, 3-4animals per treatment group. The test compound was dissolved in 5% EtOH, 10% Solutol, and was applied per os at 10 mL/kg. After 4 h, the animals were sacrificed and brain and plasma were collected. The brain was cut into halves and immediately frozen on dry ice. Brain was used for measurement of Aβ40 and plasma was used for determination of compound exposure. […] Brain tissue was homogenized in 2% DEA buffer in a Roche MagnaLyser (20″, 4000 rpm) and subsequently centrifuged for 1 h at 100000 g. DEA was reduced to 0.2% in 50 mM NaCl and one-half of the DEA lysate was passed over an Oasis Solid phase extraction plate (Waters; cat. no. 186000679), which had been activated with MeOH and equilibrated in dH2O (1 mL each). After washes in 10% and 30% MeOH (1 mL each), the Aβ-peptides were eluted in 0.8 mL of 2% NH4OH in 90% MeOH. The eluate was dried over a N2 flow, and the dried sample was reconstituted in 30 μL of AlphaLISA assay buffer. Aβ40 was determined by an AlphaLISA assay (Perkin-Elmer). In a white 96-well, half area microplate (Perkin-Elmer cat. no. 6005561), 20 μL of the reconstituted sample were mixed with 5 μL of biotinylated BAP-24 (specific for C-terminus of Aβ40) (Brockhaus, M.; Grunberg, J.; Rohrig, S.; Loetscher, H.; Wittenburg, N.; Baumeister, R.; Jacobsen, H.; Haass, C. Caspasemediated cleavage is not required for the activity of presenilins in amyloidogenesis and NOTCH signaling. NeuroReport 1998, 9, 1481-1486.) stock=4.4 mg/mL, f.c.5.5 μg/mL), and 5 μL 252Q6 acceptor beads (252Q6 antibody, Invitrogen AMB0062) had been previously conjugated with AlphaLISA Acceptor beads (Perkin-Elmer cat. no. 6772002); final dilution 1:500). The mix was incubated for 1 h at RT in the dark. Then 20 μL of Streptavin-coated Donor Beads (Perkin-Elmer cat. no. 6760002, final dilution 1:125) were added and this final mix was incubated in the dark for another 30 min at RT before RFU was measured in an AlphaScreen Reader (Perkin-Elmer Envision 2104). The value obtained for Aβ40 in the treated animals was related to the value in the vehicle group and is given in %. Alternatively a commercial ELISA was used for Aβ40 determination (Wako ELISA: (“Human/Rat β Amyloid (40) ELISA kit Wako II”; cat nr. 294-64701) following the manufacture's instruction. Also here the Aβ-lowering efficacy was calculated as percentage of the vehicle group.

T1 sequence (P56817 46-501): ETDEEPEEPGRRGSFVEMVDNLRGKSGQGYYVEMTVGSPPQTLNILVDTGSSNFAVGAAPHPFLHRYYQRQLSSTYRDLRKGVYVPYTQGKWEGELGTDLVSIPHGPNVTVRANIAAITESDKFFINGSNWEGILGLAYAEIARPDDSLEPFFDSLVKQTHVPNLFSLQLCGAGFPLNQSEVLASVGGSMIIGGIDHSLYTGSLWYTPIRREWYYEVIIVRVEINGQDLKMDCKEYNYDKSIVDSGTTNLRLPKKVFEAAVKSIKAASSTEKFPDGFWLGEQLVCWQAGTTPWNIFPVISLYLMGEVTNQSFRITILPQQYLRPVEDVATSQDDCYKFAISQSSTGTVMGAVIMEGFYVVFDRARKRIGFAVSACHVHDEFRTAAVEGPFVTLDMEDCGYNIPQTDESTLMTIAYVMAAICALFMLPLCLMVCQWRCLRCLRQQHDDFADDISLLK

Row | Compound | IC50 (BACE1) [nM] | Aβ40 (wt mice, brain) ([1]; 30 mg/kg) [%] | Aβ40 (wt mice, brain) [1] [%]
1 | Cc1cc(C#N)cnc1C(=O)Nc1ccc(F)c(C2(C)CS3(=O)=NCCCCC3(C)C(N)=N2)n1 (single isomer, unassigned) [Example 3, N-[6-(6-amino-5a,8-dimethyl-10-oxido-3,4,5,5a,8,9-hexahydro-2H-10λ^4-[1,4]thiazino[2,1-g][1,2]thiazepin-8-yl)-5-fluoropyridin-2-yl]-5-cyano-3-methylpyridine-2-carboxamide] | 13.8 | 95 | –
2 | Cc1cc(C#N)cnc1C(=O)Nc1ccc(F)c(C2(C)CS3(=O)=NCCCC3(C)C(N)=N2)n1 (single isomer, unassigned) [Example 10] | 2.9 | 89 | –
3 | CC1(c2nc(NC(=O)c3ccc(OCC(F)(F)C(F)F)cn3)ccc2F)CS2(=O)=NCCCC2(C)C(N)=N1 (single isomer, unassigned) [Example 12] | 320 | – | 77
4 | Cc1cc(C#N)cnc1C(=O)Nc1ccc(F)c(C2(CF)CS3(=O)=NCCCC3(C)C(N)=N2)n1 (single isomer, unassigned) [Example 6] | 218 | – | –
5 | CC1(c2nc(NC(=O)c3ncc(C#N)cc3Cl)ccc2F)CS2(=O)=NCCCC2(C)C(N)=N1 (single isomer, unassigned) [Example 11] | 2.3 | – | 90
6 | Cc1cc(C#N)cnc1C(=O)Nc1ccc(F)c(C2(CF)CS3(=O)=NCCCC3(C)C(N)=N2)n1 (single isomer, unassigned) [Example 9] | 98 | 113 | –
7 | CC12CCCN=S1(=O)CC(CF)(c1nc(NC(=O)c3ccc(OCC(F)(F)C(F)F)cn3)ccc1F)N=C2N (single isomer, unassigned) [Example 7] | 46 | – | –
8 | Cc1cc(C#N)cnc1C(=O)Nc1ccc(F)c(C2(CF)CS3(=O)=NCCCC3(C)C(N)=N2)n1 (single isomer, unassigned) [Example 8] | > 200 | – | –

The next molecules have a lower IC50 (BACE1) than those just listed; values first:

Row | IC50 (BACE1) [nM] | Compound | Aβ40 (wt mice, brain) ([1]; 30 mg/kg) [%] | Aβ40 (wt mice, brain) [1] [%]
9 | 0.8 | Cc1cc(C#N)cnc1C(=O)Nc1ccc(F)c(C2(CF)CS3(=O)=NCCCC3(C)C(N)=N2)n1 (single isomer, unassigned) [Example 5] | 88 | –
10 | 0.4 | Cc1cc(C#N)cnc1C(=O)Nc1ccc(F)c(C2(C)CS3(=O)=NCCCCC3(C)C(N)=N2)n1 (single isomer, unassigned) [Example 4, N-[6-(6-amino-5a,8-dimethyl-10-oxido-3,4,5,5a,8,9-hexahydro-2H-10λ^4-[1,4]thiazino[2,1-g][1,2]thiazepin-8-yl)-5-fluoropyridin-2-yl]-5-cyano-3-methylpyridine-2-carboxamide] | 83 | –
11 | 0.2 | Cc1cc(C#N)cnc1C(=O)Nc1ccc(F)c(C2(C)CS3(=O)=NCCCCC3(C)C(N)=N2)n1 (single isomer, unassigned) [Example 2, N-[6-(6-amino-5a,8-dimethyl-10-oxido-3,4,5,5a,8,9-hexahydro-2H-10λ^4-[1,4]thiazino[2,1-g][1,2]thiazepin-8-yl)-5-fluoropyridin-2-yl]-5-cyano-3-methylpyridine-2-carboxamide] | 48 | –
12 | 0.2 | Cc1cc(C#N)cnc1C(=O)Nc1ccc(F)c(C2(C)CS3(=O)=NCCCC3(C)C(N)=N2)n1 (single isomer, unassigned) [Example 1, N-[6-(5-amino-4a,7-dimethyl-9-oxido-2,3,4,4a,7,8-hexahydro-9λ^4-[1,4]thiazino[2,1-f][1,2]thiazin-7-yl)-5-fluoropyridin-2-yl]-5-cyano-3-methylpyridine-2-carboxamide] | 62 | –

Source: patent US9920072B2, “BACE1 inhibitors” (Hoffmann-La Roche Inc., priority 2014, dated 2018)
